# Results taken from PubChem BioAssay (NCI).
# Several values for one entry are separate records, joined by “and”; a condition that tells them apart may be missing. Equal entries are not always repeated.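 Exposure lasted 48 hours, with cells grown in 96-well plates and compounds tested at five concentrations. At the GI50, growth is halved. The concentration for full growth arrest is given as TGI.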
# Assays:
# Assay in all cases: NCI tumour cell line growth inhibition, 48 h
# [1] = test system: HT29 colon
# [2] = test system: SK-MEL-2 melanoma
# [3] = test system: MALME-3M melanoma
# [4] = test system: IGROV1 ovarian
# [5] = test system: LXFL 529 NSCLC
# [6] = test system: MDA-MB-435
# [7] = test system: COLO 205 colon
# [8] = test system: OVCAR-8 ovarian
# [9] = test system: MDA-MB-231 breast
# [10] = test system: EKVX NSCLC
# [11] = test system: UO-31 renal
# [12] = test system: DMS 273 small cell lung
# [13] = test system: A498 renal
# [14] = test system: SK-OV-3 ovarian
# [15] = test system: HL-60(TB) leukemia
# [16] = test system: MDA-N
# [17] = test system: A549 NSCLC
# [18] = test system: OVCAR-4 ovarian
# [19] = test system: NCI-H460 lung
# [20] = test system: MCF7 breast
# [21] = test system: TK-10 renal
# [22] = test system: RPMI-8226 leukemia
# [23] = test system: HOP-18 NSCLC
# [24] = test system: PC-3 prostate
# [25] = test system: MOLT-4 leukemia
# [26] = test system: HCC-2998 colon
# [27] = test system: DLD-1 colon
# [28] = test system: SF-268 CNS
# [29] = test system: UACC-257 melanoma
# [30] = test system: CCRF-CEM leukemia
# [31] = test system: OVCAR-5 ovarian
# [32] = test system: NCI/ADR-RES ovarian
# [33] = test system: SN12C renal
# [34] = test system: M14 melanoma
# [35] = test system: ACHN renal
# [36] = test system: KM20L2 colon
# [37] = test system: 786-0 renal
# [38] = test system: T-47D breast
# [39] = test system: SNB-19 CNS
# [40] = test system: CAKI-1 renal
# [41] = test system: OVCAR-3 ovarian
# [42] = test system: SF-539 CNS
# [43] = test system: XF 498 CNS
# [44] = test system: U251 CNS
# [45] = test system: RXF 393 renal
# [46] = test system: M19-MEL melanoma
# [47] = test system: SW-620 colon
# [48] = test system: HCT-15 colon
# [49] = test system: UACC-62 melanoma
# [50] = test system: HCT-116 colon
# [51] = test system: KM12 colon
# [52] = test system: DU-145 prostate
# [53] = test system: HS 578T breast
# [54] = test system: NCI-H23 lung
# [55] = test system: NCI-H522 lung
# [56] = test system: BT-549 breast
# [57] = test system: HOP-92 NSCLC
# [58] = test system: LOX IMVI melanoma
# [59] = test system: SK-MEL-28 melanoma
# [60] = test system: NCI-H226 lung
# [61] = test system: HOP-62 NSCLC
# [62] = test system: SK-MEL-5 melanoma
# [63] = test system: RXF-631 renal
# [64] = test system: K-562 leukemia
# [65] = test system: SR leukemia
# [66] = test system: SNB-78 CNS
# [67] = test system: P388 leukemia
# [68] = test system: DMS 114 small cell lung
# [69] = test system: P388/ADR leukemia
# [70] = test system: SN12K1 renal
compound,measurement,setting,value
NC(=Nc1nc(-c2ccccn2)cc2ccccc12)c1ccccn1,GI50,[1],70.8 nM
same,TGI,[1],> 100000 nM
same,GI50,[2],477 nM and 272 nM
same,TGI,[2],> 89300 nM
same,GI50,[3],126 nM
same,GI50,[4],21.2 nM
same,TGI,[4],> 24100 nM
same,TGI,[5],> 100000 nM
same,GI50,[6],283 nM
same,TGI,[6],> 100000 nM
same,GI50,[7],1.95 nM
same,GI50,[8],50.5 nM
same,TGI,[8],15500 nM
same,GI50,[9],941 nM
same,TGI,[9],> 100000 nM
same,TGI,[10],> 17200 nM
same,GI50,[11],239 nM
same,TGI,[11],921 nM and 1960 nM
same,GI50,[12],23.1 nM
same,GI50,[13],28.3 nM
same,GI50,[14],263 nM
same,TGI,[14],> 19400 nM
same,GI50,[15],1.04 nM
same,TGI,[15],59.8 nM and 251 nM
same,GI50,[16],445 nM
same,TGI,[16],> 100000 nM
same,GI50,[17],255 nM
same,TGI,[17],> 48700 nM
same,GI50,[18],79.8 nM
same,GI50,[19],99 nM
same,GI50,[20],148 nM
same,TGI,[20],> 100000 nM
same,GI50,[21],198 nM
same,TGI,[21],> 100000 nM
same,GI50,[22],< 17.5 nM
same,TGI,[22],515 nM
same,GI50,[23],258 nM
same,TGI,[23],27100 nM
same,GI50,[24],54.5 nM
same,TGI,[24],> 100000 nM
same,GI50,[25],1.09 nM
same,TGI,[25],28.3 nM
same,TGI,[26],> 100000 nM
same,TGI,[27],378 nM
same,GI50,[28],111 nM
same,TGI,[28],12100 nM
same,TGI,[29],794 nM and 1150 nM
same,GI50,[30],2.29 nM
same,GI50,[31],176 nM
same,TGI,[31],> 100000 nM
same,GI50,[32],43.4 nM
same,GI50,[33],131 nM
same,TGI,[33],22700 nM
same,GI50,[34],8.16 nM
same,TGI,[34],534 nM and 2860 nM
same,GI50,[35],11.5 nM
same,TGI,[36],> 100000 nM
same,GI50,[37],17.7 nM
same,GI50,[38],6.36 nM
same,TGI,[39],> 89500 nM
same,GI50,[40],42.2 nM
same,TGI,[40],> 11900 nM
same,GI50,[41],1.88 nM
same,TGI,[41],> 100000 nM
same,GI50,[42],189 nM
same,TGI,[42],743 nM and 2080 nM
same,TGI,[43],64.4 nM
same,GI50,[44],111 nM
same,TGI,[44],18600 nM
same,GI50,[45],320 nM
same,TGI,[45],795 nM
same,GI50,[46],199 nM
same,TGI,[46],953 nM
same,GI50,[47],50.5 nM
same,TGI,[47],> 100000 nM
same,GI50,[48],0.503 nM
same,TGI,[48],> 19700 nM
same,GI50,[49],49.2 nM
same,TGI,[49],171 nM and 266 nM
same,GI50,[50],1.51 nM
same,TGI,[50],> 100000 nM
same,GI50,[51],336 nM
same,TGI,[51],> 56700 nM
same,GI50,[52],135 nM
same,GI50,[53],316 nM
same,TGI,[53],> 79400 nM
same,GI50,[54],74.3 nM
same,TGI,[54],> 61600 nM
same,GI50,[55],45.8 nM
same,GI50,[56],197 nM
same,TGI,[56],> 100000 nM
same,GI50,[57],76.5 nM
same,TGI,[57],5920 nM
same,GI50,[58],158 nM
same,TGI,[58],677 nM and 1230 nM
same,GI50,[59],323 nM
same,TGI,[59],> 100000 nM
same,GI50,[60],237 nM
same,TGI,[60],23000 nM
same,GI50,[61],319 nM
same,TGI,[61],38100 nM
same,GI50,[62],46.2 nM
same,TGI,[62],> 78100 nM
same,TGI,[63],244 nM
same,GI50,[64],19.9 nM
same,TGI,[64],5300 nM
same,GI50,[65],61.9 nM and < 14.5 nM
same,TGI,[65],243 nM and 722 nM
same,TGI,[66],> 100000 nM
CCC(C)C1NC(=O)CNC(=O)C2Cc3c([nH]c4cc(O)ccc34)S(=O)CC(NC(=O)CNC1=O)C(=O)NC(CC(=O)O)C(=O)N1CC(O)CC1C(=O)NC(C(C)C(O)CO)C(=O)N2 (centres undefined),TGI,[12],14900 nM
same,TGI,[67],14900 nM
same,TGI,[23],> 88900 nM
same,TGI,[27],> 100000 nM
same,TGI,[29],6730 nM
same,TGI,[36],> 100000 nM
same,TGI,[68],3780 nM
same,TGI,[69],18400 nM
same,TGI,[43],5880 nM
same,TGI,[70],> 100000 nM
same,TGI,[46],24200 nM
same,TGI,[54],5810 nM
same,TGI,[57],5780 nM
same,TGI,[60],8080 nM
same,TGI,[66],> 100000 nM
